{"source": "ChEMBL document CHEMBL5331066", "about": "“Structure-guided design of novel HEPT analogs with enhanced potency and safety: From Isopropyl-HEPTs to Cyclopropyl-HEPTs” (Eur J Med Chem, 2023)", "key": {"[1]": {"system": "Human immunodeficiency virus 1", "assay": "Antiviral activity against HIV1 harboring Y188L mutant infected in human MT4 cells assessed as protection against virus-induced cytopathicity", "format": "functional, organism-based", "details": "Human immunodeficiency virus 1, MT4"}, "[2]": {"assay": "Cytotoxicity against human MT4 cells assessed as reduction in cell viability", "format": "toxicity, cell-based"}, "[3]": {"system": "Human immunodeficiency virus 1", "assay": "Antiviral activity against HIV1 harboring L100I mutant infected in human MT4 cells assessed as protection against virus-induced cytopathicity", "format": "functional, organism-based", "details": "Human immunodeficiency virus 1, MT4"}, "[4]": {"molecular_target": "Human immunodeficiency virus type 1 reverse transcriptase (Human immunodeficiency virus 1, UniProt Q72547)", "assay": "Inhibition of wild type HIV-1 reverse transcriptase assessed as inhibition of biotin deoxyuridine triphosphate incorporation into […]"}, "[5]": {"system": "Human immunodeficiency virus 1", "assay": "Antiviral activity against wild type HIV1 IIIB infected in human MT4 cells assessed as protection against virus-induced cytopathicity", "format": "functional, organism-based", "details": "Human immunodeficiency virus 1, IIIB"}, "[6]": {"system": "Human immunodeficiency virus 1", "assay": "Antiviral activity against HIV1 harboring Y181C mutant infected in human MT4 cells assessed as protection against virus-induced cytopathicity", "format": "functional, organism-based", "details": "Human immunodeficiency virus 1, MT4"}, "[7]": {"assay": "Selectivity index, ratio of CC50 for cytotoxicity against human MT4 cells to EC50 for antiviral activity against wild type HIV1 IIIB infected in human MT4 cells", "format": "toxicity, cell-based", "details": "read-out: Ratio CC50/EC50"}, "[8]": {"system": "Human immunodeficiency virus 1", "assay": "Antiviral activity against HIV1 harboring E138K mutant infected in human MT4 cells assessed as protection against virus-induced cytopathicity", "format": "functional, organism-based", "details": "Human immunodeficiency virus 1, MT4"}, "[9]": {"system": "Human immunodeficiency virus 1", "assay": "Antiviral activity against HIV1 harboring K103 N mutant infected in human MT4 cells assessed as protection against virus-induced cytopathicity", "format": "functional, organism-based", "details": "Human immunodeficiency virus 1, MT4"}, "Cytochrome P450 2D6": {"molecular_target": "Cytochrome P450 2D6 (Homo sapiens, UniProt P10635)", "sequence (P10635 whole entry)": "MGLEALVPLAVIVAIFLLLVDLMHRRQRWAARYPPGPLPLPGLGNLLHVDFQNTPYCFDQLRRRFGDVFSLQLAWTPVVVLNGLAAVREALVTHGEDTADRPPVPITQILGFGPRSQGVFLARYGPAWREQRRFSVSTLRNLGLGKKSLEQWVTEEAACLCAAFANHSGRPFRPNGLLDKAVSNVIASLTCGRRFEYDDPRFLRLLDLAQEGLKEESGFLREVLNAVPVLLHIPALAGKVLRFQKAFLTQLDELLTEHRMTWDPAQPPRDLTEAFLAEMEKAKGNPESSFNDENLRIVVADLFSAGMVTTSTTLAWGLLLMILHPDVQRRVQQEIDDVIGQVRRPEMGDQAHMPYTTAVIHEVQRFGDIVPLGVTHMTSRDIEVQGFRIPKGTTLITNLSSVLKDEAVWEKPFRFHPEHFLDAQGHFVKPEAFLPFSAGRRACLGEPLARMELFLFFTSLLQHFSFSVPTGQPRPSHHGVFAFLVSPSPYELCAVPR", "assay": "Inhibition of CYP2D6 (unknown origin)", "format": "ADME"}}, "data": [{"smiles": "COc1ccccc1Sc1c(C2CC2)c(=O)[nH]c(=O)n1COCc1ccccc1", "values": [{"measurement": "EC50", "setting": "[1]", "result": "> 33.6", "unit": "µM"}, {"measurement": "CC50", "setting": "[2]", "result": 33.6, "unit": "µM"}, {"measurement": "EC50", "setting": "[3]", "result": 610, "unit": "nM"}, {"measurement": "IC50", "setting": "[4]", "result": 560, "unit": "nM"}, {"measurement": "EC50", "setting": "[5]", "result": 170, "unit": "nM"}, {"measurement": "EC50", "setting": "[6]", "result": 3.82, "unit": "µM"}, {"measurement": "selectivity ratio", "setting": "[7]", "result": 197}, {"measurement": "EC50", "setting": "[8]", "result": 830, "unit": "nM"}, {"measurement": "EC50", "setting": "[9]", "result": "≥ 9.28", "unit": "µM"}]}, {"smiles": "COc1cccc(Sc2c(C3CC3)c(=O)[nH]c(=O)n2COCc2ccccc2)c1", "values": [{"measurement": "EC50", "setting": "[1]", "result": "> 33.1", "unit": "µM"}, {"measurement": "CC50", "setting": "[2]", "result": 33.1, "unit": "µM"}, {"measurement": "EC50", "setting": "[3]", "result": 270, "unit": "nM"}, {"measurement": "IC50", "setting": "[4]", "result": 180, "unit": "nM"}, {"measurement": "EC50", "setting": "[5]", "result": 85, "unit": "nM"}, {"measurement": "EC50", "setting": "[6]", "result": 5.1, "unit": "µM"}, {"measurement": "selectivity ratio", "setting": "[7]", "result": 383}, {"measurement": "EC50", "setting": "[8]", "result": 490, "unit": "nM"}, {"measurement": "EC50", "setting": "[9]", "result": 9.31, "unit": "µM"}]}, {"smiles": "Cc1cc(C)cc(Sc2c(C3CC3)c(=O)[nH]c(=O)n2COCc2ccccc2)c1", "values": [{"measurement": "EC50", "setting": "[1]", "result": 3.75, "unit": "µM"}, {"measurement": "CC50", "setting": "[2]", "result": 34, "unit": "µM"}, {"measurement": "EC50", "setting": "[3]", "result": 130, "unit": "nM"}, {"measurement": "IC50", "setting": "[4]", "result": 80, "unit": "nM"}, {"measurement": "EC50", "setting": "[5]", "result": 23, "unit": "nM"}, {"measurement": "EC50", "setting": "[6]", "result": 1.03, "unit": "µM"}, {"measurement": "selectivity ratio", "setting": "[7]", "result": 1480}, {"measurement": "EC50", "setting": "[8]", "result": 140, "unit": "nM"}, {"measurement": "EC50", "setting": "[9]", "result": 1.05, "unit": "µM"}]}, {"smiles": "Cc1cccc(C)c1Sc1c(C2CC2)c(=O)[nH]c(=O)n1COCc1ccccc1", "values": [{"measurement": "EC50", "setting": "[1]", "result": "> 30.3", "unit": "µM"}, {"measurement": "CC50", "setting": "[2]", "result": 30.3, "unit": "µM"}, {"measurement": "EC50", "setting": "[3]", "result": "> 7420", "unit": "nM"}, {"measurement": "IC50", "setting": "[4]", "result": 6120, "unit": "nM"}, {"measurement": "EC50", "setting": "[5]", "result": 4360, "unit": "nM"}, {"measurement": "EC50", "setting": "[6]", "result": "> 30.3", "unit": "µM"}, {"measurement": "selectivity ratio", "setting": "[7]", "result": 7}, {"measurement": "EC50", "setting": "[8]", "result": "> 30300", "unit": "nM"}, {"measurement": "EC50", "setting": "[9]", "result": "> 30.3", "unit": "µM"}]}, {"smiles": "O=c1[nH]c(=O)n(COCc2ccccc2)c(Sc2ccncc2)c1C1CC1", "values": [{"measurement": "EC50", "setting": "[1]", "result": "> 167", "unit": "µM"}, {"measurement": "CC50", "setting": "[2]", "result": 177, "unit": "µM"}, {"measurement": "EC50", "setting": "[3]", "result": 1440, "unit": "nM"}, {"measurement": "IC50", "setting": "[4]", "result": 630, "unit": "nM"}, {"measurement": "EC50", "setting": "[5]", "result": 22200, "unit": "nM"}, {"measurement": "EC50", "setting": "[6]", "result": 17.8, "unit": "µM"}, {"measurement": "selectivity ratio", "setting": "[7]", "result": 8}, {"measurement": "EC50", "setting": "[8]", "result": 760, "unit": "nM"}, {"measurement": "EC50", "setting": "[9]", "result": 24, "unit": "µM"}]}, {"smiles": "O=c1[nH]c(=O)n(COCc2ccccc2)c(Sc2ccccn2)c1C1CC1", "values": [{"measurement": "EC50", "setting": "[1]", "result": "> 49.9", "unit": "µM"}, {"measurement": "CC50", "setting": "[2]", "result": 167, "unit": "µM"}, {"measurement": "EC50", "setting": "[3]", "result": 390, "unit": "nM"}, {"measurement": "IC50", "setting": "[4]", "result": 110, "unit": "nM"}, {"measurement": "EC50", "setting": "[5]", "result": 170, "unit": "nM"}, {"measurement": "EC50", "setting": "[6]", "result": 3.99, "unit": "µM"}, {"measurement": "selectivity ratio", "setting": "[7]", "result": 1000}, {"measurement": "EC50", "setting": "[8]", "result": 250, "unit": "nM"}, {"measurement": "EC50", "setting": "[9]", "result": 6.12, "unit": "µM"}]}, {"smiles": "COc1ccc2c(c1)[C@]13CCCC[C@@H]1[C@H](C2)N(C)CC3", "note": "[DEXTROMETHORPHAN]", "values": [{"measurement": "IC50", "setting": "Cytochrome P450 2D6", "result": 52, "unit": "nM"}]}]}
